From US20250333397A1 (REMIX THERAPEUTICS INC., priority 2021, published 2025)
Read-outs that look alike come from different tables or passages of the source.

Key:
Format in all cases: cell-based, human
HTT mRNA = experiment: RT-qPCR splicing assay, HTT canonical (CJ) and alternative (AJ) junction mRNA; details: Homo sapiens; for AC50: read-out: HTT AJ (AC50, increase in AJ mRNA)
Summary of the method: (§1)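 Cells: A673 (DMEM/10% FBS, plated 24 h before) or K562 (IMDM/10% FBS). Dosing: 11-pt 3-fold series, 10 uM top final, ≤0.25% DMSO, 24 h, 37 °C/5% CO2. Readout: RT-qPCR of CJ and AJ junctions, housekeeper-normalized, RQ = 2^(-ΔΔCt) vs DMSO.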

MYB mRNA = experiment: RT-qPCR splicing assay, MYB canonical (CJ) and alternative (AJ) junction mRNA; details: Homo sapiens; for AC50: read-out: MYB AJ (AC50, increase in AJ mRNA)
Summary of the method: as §1

SMN2 mRNA = experiment: RT-qPCR splicing assay panel, SMN2 canonical junction (CJ) mRNA; details: Homo sapiens, canonical junction (CJ) mRNA, RT-qPCR panel, Table 4A; read-out: SMN2, decrease in CJ mRNA levels, IC50
Summary of the method: as §1

Target C mRNA = experiment: RT-qPCR splicing assay panel, Target C canonical junction (CJ) mRNA; details: Homo sapiens, canonical junction (CJ) mRNA, RT-qPCR panel, Table 4A; read-out: Target C, decrease in CJ mRNA levels, IC50
Summary of the method: as §1

[1] = 24 h, Table 3A, A673 or K562 cells, 24 h treatment
[2] = 24 h, Table 3A, A673 or K562 cells, 24 h treatment, read-out: HTT CJ (IC50, decrease in CJ mRNA)
[3] = canonical junction (CJ) mRNA, RT-qPCR panel, Table 4A, read-out: HTT, decrease in CJ mRNA levels, IC50
[4] = 24 h, Table 3A, A673 or K562 cells, 24 h treatment, read-out: MYB CJ (IC50, decrease in CJ mRNA)
[5] = canonical junction (CJ) mRNA, RT-qPCR panel, Table 4A, read-out: MYB, decrease in CJ mRNA levels, IC50

SMILES | IC50 (HTT mRNA; [2]) [µM] | IC50 (HTT mRNA; [3]) [µM] | IC50 (MYB mRNA; [4]) [µM] | IC50 (MYB mRNA; [5]) [µM] | IC50 (SMN2 mRNA) [µM] | IC50 (Target C mRNA) [µM] | AC50 (HTT mRNA; [1]) [µM] | AC50 (MYB mRNA; [1]) [µM]
COc1cc(-c2ccc(-c3ccc(N4CC[C@@H](NC5CCC5)C4)nn3)c(O)c2)ncn1 [Compound 364, 2-{6-[(3R)-3-(cyclobutylamino)pyrrolidin-1-yl]pyridazin-3-yl}-5-(6-methoxypyrimidin-4-yl)phenol] | 0.1 to 1 | 0.1 to 1 | 0.1 to 1 | 0.1 to 1 | < 0.1 | 0.1 to 1 | 0.1 to 1 | 1 to 10
COc1cc(-c2ccc(-c3ccc(N4CC[C@@](C)(NC5CCC5)C4)nn3)c(O)c2)ncn1 [Compound 366, 2-{6-[(3R)-3-(cyclobutylamino)-3-methylpyrrolidin-1-yl]pyridazin-3-yl}-5-(6-methoxypyrimidin-4-yl)phenol] | < 0.1 | < 0.1 | 0.1 to 1 | 0.1 to 1 | < 0.1 | 0.1 to 1 | < 0.1 | 0.1 to 1
Cc1cnc(-c2cc(O)c(-c3ccc(N4CCC(NC5CCC5)C4)nn3)cc2F)s1 (stereo not shown) [Compound 367] | > 10 | > 10 | > 10 | > 10 | 1 to 10 | > 10 | > 10 | > 10
COc1nccc(-c2ccc(-c3ccc(N4CCC(NCC5CC5)C4)nn3)c(O)c2)n1 (stereo not shown) [Compound 368] | 0.1 to 1 | 0.1 to 1 | 1 to 10 | 1 to 10 | 0.1 to 1 | 1 to 10 | 0.1 to 1 | 1 to 10
Cc1cc(-c2ccc(-c3ccc(N4CCC(NCC5CC5)C4)nn3)c(O)c2)ncn1 (stereo not shown) [Compound 369] | 1 to 10 | 1 to 10 | 1 to 10 | 1 to 10 | 0.1 to 1 | 1 to 10 | 1 to 10 | 1 to 10
COc1cc(-c2ccc(-c3ccc(N4CCC(NCC5CC5)C4)nn3)c(O)c2)nc(C)n1 (stereo not shown) [Compound 371] | 1 to 10 | 1 to 10 | > 10 | > 10 | 1 to 10 | > 10 | 1 to 10 | > 10
Cc1ncc(-c2cc(O)c(-c3ccc(N4CC[C@@H](N[C@@H](C)C5CC5)C4)nn3)cc2F)s1 [Compound 373] | < 0.1 | < 0.1 | < 0.1 | < 0.1 | < 0.1 | < 0.1 | < 0.1 | < 0.1
CC1(C)CC(Oc2ncc(-c3cc(F)c(-c4cn[nH]c4)cc3O)nn2)CC(C)(C)N1 [Compound 377] | 0.1 to 1 | 0.1 to 1 | 1 to 10 | 1 to 10 | 0.1 to 1 | 0.1 to 1 | 0.1 to 1 | 1 to 10
Cc1nc(F)c(-c2cc(O)c(-c3ccc(N4CCC(NC5CCC5)C4)nn3)cc2F)s1 (stereo not shown) [Compound 378] | 0.1 to 1 | 0.1 to 1 | 1 to 10 | 1 to 10 | 0.1 to 1 | 1 to 10 | 0.1 to 1 | 1 to 10
Cc1ncc(-c2ccc(-c3ccc(N4CC[C@@H](NCC5CC5)C4)nn3)c(O)c2)s1 [Compound 379, 2-{6-[(3R)-3-[(cyclopropylmethyl)amino]pyrrolidin-1-yl]pyridazin-3-yl}-5-(2-methyl-1,3-thiazol-5-yl)phenol] | < 0.1 | < 0.1 | < 0.1 | < 0.1 | < 0.1 | < 0.1 | < 0.1 | < 0.1
Cc1ncc(-c2ccc(-c3ccc(N4CC[C@H](NCC5CC5)C4)nn3)c(O)c2)s1 [Compound 380, 2-{6-[(3S)-3-[(cyclopropylmethyl)amino]pyrrolidin-1-yl]pyridazin-3-yl}-5-(2-methyl-1,3-thiazol-5-yl)phenol] | < 0.1 | < 0.1 | < 0.1 | < 0.1 | < 0.1 | < 0.1 | < 0.1 | < 0.1
COc1cc(-c2ccc(-c3ccc(N4CC[C@H](NCC5CC5)C4)nn3)c(O)c2)ncn1 [Compound 381, 2-{6-[(3S)-3-[(cyclopropylmethyl)amino]pyrrolidin-1-yl]pyridazin-3-yl}-5-(6-methoxypyrimidin-4-yl)phenol] | < 0.1 | < 0.1 | 0.1 to 1 | 0.1 to 1 | < 0.1 | 0.1 to 1 | 0.1 to 1 | 0.1 to 1
COc1cc(-c2ccc(-c3ccc(N4CC[C@@H](NCC5CC5)C4)nn3)c(O)c2)ncn1 [Compound 382, 2-{6-[(3R)-3-[(cyclopropylmethyl)amino]pyrrolidin-1-yl]pyridazin-3-yl}-5-(6-methoxypyrimidin-4-yl)phenol] | < 0.1 | < 0.1 | 0.1 to 1 | 0.1 to 1 | < 0.1 | 0.1 to 1 | 0.1 to 1 | 0.1 to 1
Cc1ncc(-c2cc(O)c(-c3ccc(OC4CC(C)(C)NC(C)(C)C4)nn3)cc2F)s1 [Compound 385] | < 0.1 | < 0.1 | 0.1 to 1 | 0.1 to 1 | < 0.1 | 0.1 to 1 | < 0.1 | 0.1 to 1

Second part, led by results:

IC50 (HTT mRNA; [2]) [µM] | IC50 (HTT mRNA; [3]) [µM] | IC50 (MYB mRNA; [4]) [µM] | IC50 (MYB mRNA; [5]) [µM] | IC50 (SMN2 mRNA) [µM] | IC50 (Target C mRNA) [µM] | SMILES | AC50 (HTT mRNA; [1]) [µM] | AC50 (MYB mRNA; [1]) [µM]
< 0.1 | < 0.1 | 0.1 to 1 | 0.1 to 1 | < 0.1 | < 0.1 | COc1cc(-c2ccc(-c3ccc(N4CC[C@](C)(NC5CCC5)C4)nn3)c(O)c2)ncn1 [Compound 365, 2-{6-[(3S)-3-(cyclobutylamino)-3-methylpyrrolidin-1-yl]pyridazin-3-yl}-5-(6-methoxypyrimidin-4-yl)phenol] | < 0.1 | 0.1 to 1
> 10 | > 10 | > 10 | > 10 | 0.1 to 1 | > 10 | Oc1cc(-c2cc(OC(F)F)ncn2)ccc1-c1ccc(N2CCC(NCC3CC3)C2)nn1 (stereo not shown) [Compound 370] | > 10 | > 10
< 0.1 | < 0.1 | < 0.1 | < 0.1 | < 0.1 | < 0.1 | Cc1ncc(-c2cc(O)c(-c3ccc(N4CC[C@H](N[C@H](C)C5CC5)C4)nn3)cc2F)s1 [Compound 372] | < 0.1 | < 0.1
0.1 to 1 | 0.1 to 1 | 0.1 to 1 | 0.1 to 1 | < 0.1 | 0.1 to 1 | COc1nc(-c2ccc(N3CCC(NC4CCC4)C3)nn2)ccc1-c1cnc(C)s1 (stereo not shown) [Compound 374] | 0.1 to 1 | 1 to 10
< 0.1 | < 0.1 | 0.1 to 1 | 0.1 to 1 | < 0.1 | 0.1 to 1 | COc1cc(-c2ccc(-c3ccc(N4CC[C@@](C)(NCC5CC5)C4)nn3)c(O)c2)ncn1 [Compound 375, 2-{6-[(3R)-3-[(cyclopropylmethyl)amino]-3-methylpyrrolidin-1-yl]pyridazin-3-yl}-5-(6-methoxypyrimidin-4-yl)phenol] | 0.1 to 1 | 1 to 10
< 0.1 | < 0.1 | 0.1 to 1 | 0.1 to 1 | < 0.1 | 0.1 to 1 | COc1cc(-c2ccc(-c3ccc(N4CC[C@](C)(NCC5CC5)C4)nn3)c(O)c2)ncn1 [Compound 376, 2-{6-[(3S)-3-[(cyclopropylmethyl)amino]-3-methylpyrrolidin-1-yl]pyridazin-3-yl}-5-(6-methoxypyrimidin-4-yl)phenol] | < 0.1 | 0.1 to 1
< 0.1 | < 0.1 | 0.1 to 1 | 0.1 to 1 | < 0.1 | < 0.1 | COc1cc(-c2ccc(-c3ccc(N4CC[C@@H](NC5(C)CCC5)C4)nn3)c(O)c2)ncn1 [Compound 383, 5-(6-methoxypyrimidin-4-yl)-2-{6-[(3R)-3-[(1-methylcyclobutyl)amino]pyrrolidin-1-yl]pyridazin-3-yl}phenol] | < 0.1 | 0.1 to 1
< 0.1 | < 0.1 | 0.1 to 1 | 0.1 to 1 | < 0.1 | 0.1 to 1 | COc1cc(-c2ccc(-c3ccc(N4CC[C@H](NC5(C)CCC5)C4)nn3)c(O)c2)ncn1 [Compound 384, 5-(6-methoxypyrimidin-4-yl)-2-{6-[(3S)-3-[(1-methylcyclobutyl)amino]pyrrolidin-1-yl]pyridazin-3-yl}phenol] | < 0.1 | 0.1 to 1
0.1 to 1 | 0.1 to 1 | 1 to 10 | 1 to 10 | 0.1 to 1 | 1 to 10 | Cc1nc(C)c(-c2cc(O)c(-c3ccc(N4CC[C@H](NC5CCC5)C4)nn3)cc2F)s1 [Compound 386] | 1 to 10 | 1 to 10
